# Source: ChEMBL document CHEMBL1136921, “Benzylguanidines and other galegine analogues inducing weight loss in mice” (J Med Chem, 2009)
# Calls of active or inactive are those of the source. The calls are words filed in the database; no cut-off is given here.
# Tests used:
# [1] = tested on: Mus musculus; test: Antiobesity activity in lean normal BALB/c mouse assessed as change in average daily food intake at 0.52 mmol/kg/day administered through diet for 7 days relative to time-matched control; type: functional
# [2] = tested on: Mus musculus; test: Toxicity in lean normal BALB/c mouse assessed as overt signs of behavioural changes at equimolar dose of 0.5 mmol/kg galegine administered daily through diet for 7 days; type: organism-based; details: in vivo, po, 168 h
# [3] = tested on: Mus musculus; test: Antiobesity activity in lean normal BALB/c mouse assessed as change in average daily weight at 0.52 mmol/kg/day administered through diet for 7 days relative to time-matched control; type: functional
# [4] = tested on: Mus musculus; test: Hypoglycemic activity in lean normal BALB/c mouse assessed as blood glucose level at 0.52 mmol/kg/day administered through diet for 7 days relative to time-matched control; type: functional
# [5] = tested on: Mus musculus; test: Antiobesity activity in ob/ob mouse model assessed as change in average daily food intake at 0.26 mmol/kg/day administered through diet for 28 days relative to time-matched control; type: functional
# [6] = tested on: Mus musculus; test: Hypoglycemic activity in lean normal BALB/c mouse assessed as blood glucose level at 0.5 mmol/kg/day administered through diet for 7 days relative to time-matched control; type: functional
# [7] = tested on: Mus musculus; test: Antiobesity activity in ob/ob mouse model assessed as change in average daily weight at 0.26 mmol/kg/day administered through diet for 28 days relative to time-matched control; type: functional
# [8] = tested on: Mus musculus; test: Antiobesity activity in lean normal BALB/c mouse assessed as change in average daily weight at 0.5 mmol/kg/day administered through diet for 7 days relative to time-matched control; type: functional
# [9] = tested on: Mus musculus; test: Antiobesity activity in high fat diet-induced obese BALB/c mouse model assessed as change in average daily food intake at 0.38 mmol/kg/day administered through diet for 28 days relative to time-matched control; type: functional
# [10] = tested on: Mus musculus; test: Antiobesity activity in lean normal BALB/c mouse assessed as change in average daily food intake at 0.5 mmol/kg/day administered through diet for 7 days relative to time-matched control; type: functional
# [11] = tested on: Mus musculus; test: Hypoglycemic activity in ob/ob mouse model assessed as blood glucose level at 0.26 mmol/kg/day administered through diet for 28 days relative to time-matched control; type: functional
# [12] = tested on: Mus musculus; test: Antiobesity activity in high fat diet-induced obese BALB/c mouse model assessed as change in average daily body weight at 0.38 mmol/kg/day administered through diet for 28 days relative to time-matched control; type: functional
# [13] = tested on: Mus musculus; test: Hypoglycemic activity in high fat diet-induced obese BALB/c mouse model assessed as blood glucose level at 0.38 mmol/kg/day administered through diet for 28 days relative to time-matched control; type: functional
# [14] = tested on: Mus musculus; test: Antiobesity activity in lean normal BALB/c mouse assessed as change in average daily food intake at 0.57 mmol/kg/day administered through diet for 7 days relative to time-matched control; type: functional
# [15] = tested on: Mus musculus; test: Hypoglycemic activity in lean normal BALB/c mouse assessed as blood glucose level at 0.57 mmol/kg/day administered through diet for 7 days relative to time-matched control; type: functional
# [16] = tested on: Mus musculus; test: Antiobesity activity in lean normal BALB/c mouse assessed as change in average daily weight at 0.57 mmol/kg/day administered through diet for 7 days relative to time-matched control; type: functional
# [17] = tested on: Mus musculus; test: Antiobesity activity in lean normal BALB/c mouse assessed as change in average daily food intake at 0.70 mmol/kg/day administered through diet for 7 days relative to time-matched control; type: functional
# [18] = tested on: Mus musculus; test: Hypoglycemic activity in lean normal BALB/c mouse assessed as blood glucose level at 0.70 mmol/kg/day administered through diet for 7 days relative to time-matched control; type: functional
# [19] = tested on: Mus musculus; test: Antiobesity activity in lean normal BALB/c mouse assessed as change in average daily weight at 0.70 mmol/kg/day administered through diet for 7 days relative to time-matched control; type: functional
# [20] = tested on: Mus musculus; test: Antiobesity activity in lean normal BALB/c mouse assessed as change in average daily weight at 0.60 mmol/kg/day administered through diet for 7 days relative to time-matched control; type: functional
# [21] = tested on: Mus musculus; test: Antiobesity activity in lean normal BALB/c mouse assessed as change in average daily food intake at 0.60 mmol/kg/day administered through diet for 7 days relative to time-matched control; type: functional
# [22] = tested on: Mus musculus; test: Antiobesity activity in lean normal BALB/c mouse assessed as change in average daily food intake at 0.54 mmol/kg/day administered through diet for 7 days relative to time-matched control; type: functional
# [23] = tested on: Mus musculus; test: Antiobesity activity in lean normal BALB/c mouse assessed as change in average daily weight at 0.54 mmol/kg/day administered through diet for 7 days relative to time-matched control; type: functional
# [24] = Metabolic stability in ob/ob mouse liver microsomes assessed as oxidative hydroxylation at 50 uM after 45 mins by HPLC-MS analysis; type: ADME, Microsome; details: 0.75 h
# [25] = tested on: Mus musculus; test: Hypoglycemic activity in high fat diet-induced obese BALB/c mouse model assessed as blood glucose level at 0.43 mmol/kg/day administered through diet for 28 days relative to time-matched control; type: functional
# [26] = tested on: Mus musculus; test: Antiobesity activity in high fat diet-induced obese BALB/c mouse model assessed as change in average daily body weight at 0.43 mmol/kg/day administered through diet for 28 days relative to time-matched control; type: functional
# [27] = tested on: Mus musculus; test: Hypoglycemic activity in lean normal BALB/c mouse assessed as blood glucose level at 0.54 mmol/kg/day administered through diet for 7 days relative to time-matched control; type: functional
# [28] = tested on: Mus musculus; test: Antiobesity activity in high fat diet-induced obese BALB/c mouse model assessed as change in average daily food intake at 0.43 mmol/kg/day administered through diet for 28 days relative to time-matched control; type: functional
# [29] = tested on: Mus musculus; test: Antidiabetic activity in lean normal BALB/c mouse assessed as effect on blood lactate level at equimolar dose of 0.5 mmol/kg galegine administered daily through diet for 7 days; type: functional, organism-based
# [30] = tested on: Mus musculus; test: Hypoglycemic activity in lean normal BALB/c mouse assessed as blood glucose level at equimolar dose of 0.5 mmol/kg galegine administered daily through diet for 7 days; type: functional, organism-based
# [31] = tested on: Mus musculus; test: Antiobesity activity in lean normal BALB/c mouse assessed as change in average daily food intake at equimolar dose of 0.5 mmol/kg galegine administered daily through diet for 7 days; type: functional, organism-based
# [32] = tested on: Mus musculus; test: Antiobesity activity in lean normal BALB/c mouse assessed as change in average daily weight at equimolar dose of 0.5 mmol/kg galegine administered daily through diet for 7 days; type: functional, organism-based
smiles,measurement,setting,value
N=C(N)NCc1ccc(Br)cc1,Activity,[1],-36.7%
same,Activity,[2],Non-toxic
same,Activity,[3],-23.3%
same,Activity,[4],51%
CC(C)=CCN=C(N)N [GALEGINE],Activity,[5],-29.2%
same,Activity,[6],53%
same,Activity,[7],-7.3%
same,Activity,[8],-16.6%
same,Activity,[2],Non-toxic
same,Activity,[9],-23.6%
same,Activity,[10],-36.3%
same,Activity,[11],91%
same,Activity,[12],-9%
same,Activity,[13],77%
N=C(N)NCc1ccccc1Cl,Activity,[2],Non-toxic
same,Activity,[14],-21.1%
same,Activity,[15],82%
same,Activity,[16],-10.7%
N=C(N)NCc1ccc(C(F)(F)F)cc1,Activity,[2],Non-toxic
same,Activity,[17],-12.7%
same,Activity,[18],75%
same,Activity,[19],-10.6%
COc1ccccc1CNC(=N)N,Activity,[20],-7%
same,Activity,[2],Non-toxic
same,Activity,[21],-4.1%
N=C(N)NCc1ccccc1,Activity,[5],-29.3%
same,Activity,[7],-6.8%
same,Activity,[22],-28.1%
same,Activity,[23],-10.4%
same,Activity,[24],Stable
same,Activity,[25],90%
same,Activity,[2],Non-toxic
same,Activity,[26],-10.6%
same,Activity,[27],60%
same,Activity,[28],-14.9%
same,Activity,[11],82%
CC(C)=CCNC=N,Activity,[6],inactive
same,Activity,[8],inactive
same,Activity,[10],inactive
CSCCNC(=N)N,Activity,[29],inactive
same,Activity,[30],inactive
same,Activity,[31],inactive
same,Activity,[32],inactive
